No end group written: not given here.
How the values were obtained:
[1] = biological target: gp41 of HIV-1 virus HXB2 (HIV-1 isolate HXB2) (UniProt P04578); test: cell-based or functional assay
[2] = biological target: gp41 of HIV-1 virus V570A (HIV-1 isolate HXB2) (UniProt P04578); test: cell-based or functional assay
[3] = Circular dichroism (secondary structure, thermal stability); format: physicochemical; conditions: pH 4, 20° C.
[4] = Analytical ultracentrifugation (oligomeric state); format: physicochemical; conditions: for AUC Ratio (observed to predicted Mw): AUC condition a: 25 mM Na Acetate, 0.15M NaCl, pH 4; for self-association from AUC ratio of observed to predicted molecular weight: monomeric peptides
Procedure: All analytical ultracentrifugation (AU) experiments were performed with a XL-I analytical ultracentrifuge (Beckman Coulter, Inc., Indianopolis, Ind.) at 20° C. For sedimentation velocity analysis, the samples were centrifuged at 48,000 rpm at 20° C. for 5 hours, with radial absorbance scans taken approximately every 4 minutes. g*(s) analysis was performed with the program DCDT+, version 2.2.1 (John Philo, Thousand Oaks, Calif.) or the Optima XL-I data analysis software (Beckman Coulter, Inc.). Sedimentation equilibrium experiments were conducted at three different loading concentrations and three different rotor speeds (16,000, 20,000, and 30,000). Molecular masses were calculated using the Optima XL-I data analysis software or using Heteroanalysis version 1.1.33 (from the Analytical Ultracentrifugation Facility, Biotechnology and Bioservices Center of the University of Connecticut).

[5] = tested on: D5 IgG binding to 5-helix (recombinant gp41 mimetic); test: D5/5-Helix Competitive Binding Assay (DCBA), peptide constructs; conditions: for IC50: competition for D5 binding to 5-helix, FRET
Procedure: An in vitro binding assay based on fluorescence resonance energy transfer (FRET) was performed as previously described in Caulfield et al., 2010, J Biol Chem 285:40604-40611. Briefly, the assay uses D5 IgG (see U.S. Pat. No. 7,744,887) conjugated to europium cryptate (Eu-D5) and a biotinylated derivative of the recombinant gp41 mimetic 5-helix (5H). Biotin-5H binds to a streptavidin-conjugated allophycocyanin (APC) substrate to form a 5H-SA-APC complex. Binding of Eu-D5 to 5H results in FRET from Eu to APC. When the reaction system is excited at a wavelength of 340 nm, the amount of bound Eu-D5 is measured at the emission wavelength of 665 nm, and total Eu is measured at the emission wavelength of 620 nm. Data are reported as 10000× the ratio of signal at 665 nm to signal at 620 nm. Agents that bind competitively to either component cause a decrease in the ratio value.

HXB2 = format: cell-based, HIV-1; conditions: HeLa P4R5 cells, virus HXB2; read-out: p4/2R5 IC50 HXB2
From the text: (§1) A number of different experimental methods can be used to determine whether or not a gp41 peptide mimetic can form a stable, faithful mimetic of said internal coiled-coil. For example, an assay designed to measure the ability of the conformationally constrained gp41 peptide mimetics to inhibit infectivity of HIV particles can be performed. In one such assay, HeLa cells stably expressing human CD4 and CCR5 receptors and harboring a β-galactosidase reporter gene driven by a tat-responsive fragment of HIV-2 LTR are infected with HIV-1 of various strains in the presence of gp41 peptide mimetics at varying concentrations. After incubating said cells for a specific period of time, the cells are lysed and β-galactosidase activity is quantified.
(§2) This neutralization assay was performed as previously described in Joyce et al., 2002, J Biol Chem 277:45811-45820 with the following modifications: HeLa P4R5 cells were seeded at 1000 cells/well in a 384-well plate and infected the following day with the appropriate HIV-1 or SHIV virus at a multiplicity of infection of approximately 0.01 in the presence of serial dilutions of immune sera or fractionated IgG 48 hours post infection, and cells were lysed and β-galactosidase activity was measured using a chemiluminescent substrate (GalScreen®, Applied Biosystems™, Life Technologies Corp., Carlsbad, Calif.). For analysis of purified IgG, the data are expressed as IC50, defined as the IgG concentration resulting in 50% reduction of chemiluminescence signal. For analysis of sera, the IC50 is defined as the reciprocal serum dilution resulting in 50% reduced chemiluminescence signal.

viral strain V570A = format: cell-based, HIV-1; conditions: HeLa P4R5 cells, virus V570A; read-out: p4/2R5 IC50 V570A
From the text: as §1, §2

[6] = biological target: gp41 of HIV-1 virus V570A (HIV-1 isolate HXB2, UniProt P04578 512-856); test: cell-based or functional assay
gp41 of HIV-1 virus HXB2 = gp41 of HIV-1 virus HXB2 (HIV-1 isolate HXB2, UniProt P04578 512-856); test: cell-based or functional assay
[7] = biological target: the molecule itself; test: analytical ultracentrifugation (ratio of observed to predicted molecular weight); self-association
[8] = CD condition a: 50 mM Na Acetate, 0.15M NaCl

With D5 IgG (antibody) the p4/2R5 IC50 (nM), HXB2 [1] was 179 nM and the p4/2R5 IC50 (nM), V570A [2] was 61.7 nM.

For “Ac-QIRELISKIVEQINNILRAIEAQQHALQLTVWGIKQLQARILAVERYLKDQ-NH2 (N-terminus assumed) [Peptide N51-2B]”, the “CD % (-helix)” value [3, 8] was 97%, the “AUC Ratio (observed to predicted Mw)” value [4] was 3.6 and the “self-association from AUC ratio of observed to predicted molecular weight” value [4] was “strong preference for self-association”. The “effect of mutations on D5 binding in DCBA” value [5] was “apparent negative impact”, the IC50 [5] was > 300 nM and the IC50 (HXB2) was 60.9 nM. The IC50 (viral strain V570A) was 33.4 nM.

With “KTA(N51-3B)3: three thiol tagged monomeric N51-3B peptides ligated on trivalent bromide scaffold KTA-Br (QARQLLSGIVQQQNNLLRAIEAQQHALQLTVWGIKQLQARILAVERYLKDQ-NH2; not fully specified (N-terminus); also: trimer: three S-acetylglycolic thiol-tagged N51-3B ligated on trivalent bromide scaffold KTA-Br)” the “CD % (-helix)” value ([3]; CD condition c: 25 mM Na Acetate) was 88%, the “AUC Observed Mw: precipitation” value ([4]; pH 7) was “ppt (pH 7)” and the IC50 [5] was 38.4 nM.

For “Ac-QARQLLSGIVQQQNNLLRAIEAQQHALQLTVWGIKQLQARILAVERYLKDQ-NH2 (N-terminus assumed) [Peptide N51-3B]”, the “CD % (-helix)” value [3, 8] was 105%, the “AUC Ratio (observed to predicted Mw)” value [4] was 3.3 and the “self-association from AUC ratio of observed to predicted molecular weight” value [4] was “strong preference for self-association”. For the same molecule, the “effect of mutations on D5 binding in DCBA” value [5] was “apparent negative impact”, the IC50 [5] was > 300 nM and the IC50 (HXB2) was 107 nM. It also gave an IC50 (viral strain V570A) of 49.3 nM.

B1: N51-3B (L′584) (peptide)
peptide: QARQLLSGIVQQQNNLLRAIEAQQHALQLTVWGIKQLQARILAVERYLKDQ
notes: Monomeric synthetic peptide
In the case of B1, the “p4/2R5 IC50 (nM), V570A” value [6] is reported as 49.3 nM, the “p4/2R5 IC50 (nM), HXB2” value (gp41 of HIV-1 virus HXB2) is reported as 107 nM and the binding result [7] is reported as “binds”.

B2: KTA(N51-3B)3 (L′510) (peptide)
peptide: B1 peptide
modifications: not fully specified (N-terminus); also: covalent trimer of three N51-3B peptides on Kemp's triacid scaffold
With B2 the “p4/2R5 IC50 (nM), V570A” value [6] was 29.1 nM and the “p4/2R5 IC50 (nM), HXB2” value (gp41 of HIV-1 virus HXB2) was 79.4 nM.

B3: N51-2B (L′583) (peptide)
peptide: QIRELISKIVEQINNILRAIEAQQHALQLTVWGIKQLQARILAVERYLKDQ
modifications: not fully specified (C-terminus)
notes: Monomeric synthetic peptide made on Rink amide resin; Self-associates in solution
With B3 the “p4/2R5 IC50 (nM), V570A” value [6] was 33.4 nM, the “p4/2R5 IC50 (nM), HXB2” value (gp41 of HIV-1 virus HXB2) was 60.9 nM and the binding result [7] was “binds”.

Source: patent US20150071954A1, “STABLE PEPTIDE MIMETICS OF THE HIV-1 GP41 PRE-HAIRPIN INTERMEDIATE” (priority 2012, published 2015)
